According to ChEMBL document CHEMBL1944578, “Synthesis and anticonvulsant activity of novel 2,6-diketopiperazine derivatives. Part 2: Perhydropyrido[1,2-a]pyrazines” (Eur J Med Chem, 2012):
Activity calls are given as the source filed them. No cut-off for these calls is given here.

Tests used:
Mus musculus [1] = assay: Anticonvulsant activity in Carworth farms No.1 albino mouse assessed as protection against maximum electroshock at 30 mg/kg, ip measured after 0.5 hrs; assay type: functional, organism-based; parameters: dose 30 mg/kg
Mus musculus [2] = assay: Anticonvulsant activity in Carworth farms No.1 albino mouse assessed as protection against maximum electroshock at 100 mg/kg, ip measured after 0.5 hrs; assay type: functional, organism-based; parameters: dose 100 mg/kg
Mus musculus [3] = assay: Anticonvulsant activity in Carworth farms No.1 albino mouse assessed as protection against maximum electroshock at 300 mg/kg, ip measured after 0.5 hrs; assay type: functional, organism-based; parameters: dose 300 mg/kg
Mus musculus [4] = assay: Anticonvulsant activity in Carworth farms No.1 albino mouse assessed as protection against maximum electroshock at 30 mg/kg, ip measured after 4 hrs; assay type: functional, organism-based; parameters: dose 30 mg/kg
Mus musculus [5] = assay: Anticonvulsant activity in Carworth farms No.1 albino mouse assessed as protection against maximum electroshock at 100 mg/kg, ip measured after 4 hrs; assay type: functional, organism-based; parameters: dose 100 mg/kg
Mus musculus [6] = assay: Anticonvulsant activity in Carworth farms No.1 albino mouse assessed as protection against maximum electroshock at 300 mg/kg, ip measured after 4 hrs; assay type: functional, organism-based; parameters: dose 300 mg/kg
Mus musculus [7] = assay: Anticonvulsant activity in Carworth farms No.1 albino mouse assessed as protection against subcutaneous metrazole-induced seizures at 30 mg/kg, ip measured after 0.5 hrs; assay type: functional, organism-based; parameters: dose 30 mg/kg
Mus musculus [8] = assay: Anticonvulsant activity in Carworth farms No.1 albino mouse assessed as protection against subcutaneous metrazole-induced seizures at 100 mg/kg, ip measured after 0.5 hrs; assay type: functional, organism-based; parameters: dose 100 mg/kg
Mus musculus [9] = assay: Anticonvulsant activity in Carworth farms No.1 albino mouse assessed as protection against subcutaneous metrazole-induced seizures at 300 mg/kg, ip measured after 0.5 hrs; assay type: functional, organism-based; parameters: dose 300 mg/kg
Mus musculus [10] = assay: Anticonvulsant activity in Carworth farms No.1 albino mouse assessed as protection against subcutaneous metrazole-induced seizures at 30 mg/kg, ip measured after 4 hrs; assay type: functional, organism-based; parameters: dose 30 mg/kg
Mus musculus [11] = assay: Anticonvulsant activity in Carworth farms No.1 albino mouse assessed as protection against subcutaneous metrazole-induced seizures at 100 mg/kg, ip measured after 4 hrs; assay type: functional, organism-based; parameters: dose 100 mg/kg
Mus musculus [12] = assay: Anticonvulsant activity in Carworth farms No.1 albino mouse assessed as protection against subcutaneous metrazole-induced seizures at 300 mg/kg, ip measured after 4 hrs; assay type: functional, organism-based; parameters: dose 300 mg/kg
Mus musculus [13] = assay: Neurotoxicity in Carworth farms No.1 albino mouse assessed as neurological impairment at 30 mg/kg, ip measured after 0.5 hrs; assay type: toxicity, organism-based; parameters: dose 30 mg/kg, route intraperitoneal; conditions: in vivo
Mus musculus [14] = assay: Neurotoxicity in Carworth farms No.1 albino mouse assessed as neurological impairment at 100 mg/kg, ip measured after 0.5 hrs; assay type: toxicity, organism-based; parameters: dose 100 mg/kg, route intraperitoneal; conditions: in vivo
Mus musculus [15] = assay: Neurotoxicity in Carworth farms No.1 albino mouse assessed as neurological impairment at 300 mg/kg, ip measured after 0.5 hrs; assay type: toxicity, organism-based; parameters: dose 300 mg/kg, route intraperitoneal; conditions: in vivo
Mus musculus [16] = assay: Neurotoxicity in Carworth farms No.1 albino mouse assessed as neurological impairment at 30 mg/kg, ip measured after 4 hrs; assay type: toxicity, organism-based; parameters: dose 30 mg/kg, route intraperitoneal; conditions: in vivo
Mus musculus [17] = assay: Neurotoxicity in Carworth farms No.1 albino mouse assessed as neurological impairment at 100 mg/kg, ip measured after 4 hrs; assay type: toxicity, organism-based; parameters: dose 100 mg/kg, route intraperitoneal; conditions: in vivo
Mus musculus [18] = assay: Neurotoxicity in Carworth farms No.1 albino mouse assessed as sedation at 300 mg/kg, ip measured after 4 hrs; assay type: toxicity, organism-based; parameters: dose 300 mg/kg, route intraperitoneal; conditions: in vivo
Rattus norvegicus [19] = assay: Anticonvulsant activity in Sprague-Dawley rat assessed as protection against maximum electroshock at 30 mg/kg, po measured after 0.25 hrs; assay type: functional, organism-based; parameters: dose 30 mg/kg
Rattus norvegicus [20] = assay: Anticonvulsant activity in Sprague-Dawley rat assessed as protection against maximum electroshock at 30 mg/kg, po measured after 0.5 hrs; assay type: functional, organism-based; parameters: dose 30 mg/kg
Rattus norvegicus [21] = assay: Anticonvulsant activity in Sprague-Dawley rat assessed as protection against maximum electroshock at 30 mg/kg, po measured after 1 hr; assay type: functional, organism-based; parameters: dose 30 mg/kg
Rattus norvegicus [22] = assay: Anticonvulsant activity in Sprague-Dawley rat assessed as protection against maximum electroshock at 30 mg/kg, po measured after 2 hrs; assay type: functional, organism-based; parameters: dose 30 mg/kg
Rattus norvegicus [23] = assay: Anticonvulsant activity in Sprague-Dawley rat assessed as protection against maximum electroshock at 30 mg/kg, po measured after 4 hrs; assay type: functional, organism-based; parameters: dose 30 mg/kg
Rattus norvegicus [24] = assay: Neurotoxicity in Sprague-Dawley rat assessed as neurological impairment at 30 mg/kg, po measured after 0.25 hrs; assay type: toxicity, organism-based; parameters: dose 30 mg/kg, route oral; conditions: in vivo
Rattus norvegicus [25] = assay: Neurotoxicity in Sprague-Dawley rat assessed as neurological impairment at 30 mg/kg, po measured after 0.5 hrs; assay type: toxicity, organism-based; parameters: dose 30 mg/kg, route oral; conditions: in vivo
Rattus norvegicus [26] = assay: Neurotoxicity in Sprague-Dawley rat assessed as neurological impairment at 30 mg/kg, po measured after 1 hr; assay type: toxicity, organism-based; parameters: dose 30 mg/kg, route oral; conditions: in vivo
Rattus norvegicus [27] = assay: Neurotoxicity in Sprague-Dawley rat assessed as neurological impairment at 30 mg/kg, po measured after 2 hrs; assay type: toxicity, organism-based; parameters: dose 30 mg/kg, route oral; conditions: in vivo
Rattus norvegicus [28] = assay: Neurotoxicity in Sprague-Dawley rat assessed as neurological impairment at 30 mg/kg, po measured after 4 hrs; assay type: toxicity, organism-based; parameters: dose 30 mg/kg, route oral; conditions: in vivo
Mus musculus [29] = assay: Anticonvulsant activity in Carworth farms No.1 albino mouse assessed as protection against 6 Hz electric current-induced seizure at 100 mg/kg, ip measured after 0.25 hrs; assay type: functional, organism-based; parameters: dose 100 mg/kg
Mus musculus [30] = assay: Anticonvulsant activity in Carworth farms No.1 albino mouse assessed as protection against 6 Hz electric current-induced seizure at 100 mg/kg, ip measured after 0.5 hrs; assay type: functional, organism-based; parameters: dose 100 mg/kg
Mus musculus [31] = assay: Anticonvulsant activity in Carworth farms No.1 albino mouse assessed as protection against 6 Hz electric current-induced seizure at 100 mg/kg, ip measured after 1 hrs; assay type: functional, organism-based; parameters: dose 100 mg/kg
Mus musculus [32] = assay: Anticonvulsant activity in Carworth farms No.1 albino mouse assessed as protection against 6 Hz electric current-induced seizure at 100 mg/kg, ip measured after 2 hrs; assay type: functional, organism-based; parameters: dose 100 mg/kg
Mus musculus [33] = assay: Anticonvulsant activity in Carworth farms No.1 albino mouse assessed as protection against 6 Hz electric current-induced seizure at 100 mg/kg, ip measured after 4 hrs; assay type: functional, organism-based; parameters: dose 100 mg/kg
Mus musculus [34] = assay: Neurotoxicity in Carworth farms No.1 albino mouse assessed as neurological impairment at 100 mg/kg, ip measured after 1 hr; assay type: toxicity, organism-based; parameters: dose 100 mg/kg, route intraperitoneal; conditions: in vivo
Mus musculus [35] = assay: Neurotoxicity in Carworth farms No.1 albino mouse assessed as neurological impairment at 100 mg/kg, ip measured after 2 hr; assay type: toxicity, organism-based; parameters: dose 100 mg/kg, route intraperitoneal; conditions: in vivo
Mus musculus [36] = assay: Neurotoxicity in Carworth farms No.1 albino mouse assessed as inability to grasp rotarod at 100 mg/kg, ip measured after 0.25 hr; assay type: toxicity, organism-based; parameters: dose 100 mg/kg, route intraperitoneal; conditions: in vivo
Mus musculus [37] = assay: Neurotoxicity in Carworth farms No.1 albino mouse assessed as inability to grasp rotarod at 100 mg/kg, ip measured after 0.5 hr; assay type: toxicity, organism-based; parameters: dose 100 mg/kg, route intraperitoneal; conditions: in vivo
Mus musculus [38] = assay: Anticonvulsant activity in ip dosed Carworth farms No.1 albino mouse assessed as protection against 6 Hz electric current-induced seizure measured after 0.25 hrs; assay type: functional
Mus musculus [39] = species: Mus musculus; assay: Anticonvulsant activity in electric shock-induced Carworth farms No.1 albino mouse assessed as time of peak effect; assay type: functional
Mus musculus [40] = assay: Neurotoxicity in Carworth farms No.1 albino mouse assessed as neurological impairment at 300 mg/kg, ip measured after 4 hrs; assay type: toxicity, organism-based; parameters: dose 300 mg/kg, route intraperitoneal; conditions: in vivo
Mus musculus [41] = assay: Neurotoxicity in Carworth farms No.1 albino mouse assessed as neurological impairment at 100 mg/kg, ip measured after 0.25 hrs; assay type: toxicity, organism-based; parameters: dose 100 mg/kg, route intraperitoneal; conditions: in vivo
Mus musculus [42] = assay: Anticonvulsant activity in Carworth farms No.1 albino mouse assessed as protection against maximum electroshock at 100 mg/kg, ip measured after 2 hrs; assay type: functional, organism-based; parameters: dose 100 mg/kg
Mus musculus [43] = assay: Anticonvulsant activity in Carworth farms No.1 albino mouse assessed as protection against subcutaneous metrazole-induced seizures at 100 mg/kg, ip measured after 2 hrs; assay type: functional, organism-based; parameters: dose 100 mg/kg

Compound	Activity (Mus musculus [1])	Activity (Mus musculus [2])	Activity (Mus musculus [3])	Activity (Mus musculus [4])	Activity (Mus musculus [5])	Activity (Mus musculus [6])	Activity (Mus musculus [7])	Activity (Mus musculus [8])	Activity (Mus musculus [9])	Activity (Mus musculus [10])	Activity (Mus musculus [11])	Activity (Mus musculus [12])	Activity (Mus musculus [13])	Activity (Mus musculus [14])	Activity (Mus musculus [15])	Activity (Mus musculus [16])	Activity (Mus musculus [17])	Activity (Mus musculus [29])	Activity (Mus musculus [30])	Activity (Mus musculus [31])	further results
O=C1NC(=O)[C@@H]2CCCCN2[C@H]1c1ccccc1	inactive	Active	Active	inactive	inactive	Active	inactive	Active	Active	inactive	inactive	Active	Non-toxic	Toxic	Toxic	Non-toxic	Non-toxic	Active	Active	Active	Activity (Mus musculus [18]): Toxic; Activity (Rattus norvegicus [19]): inactive; Activity (Rattus norvegicus [20]): inactive; Activity (Rattus norvegicus [21]): inactive; Activity (Rattus norvegicus [22]): inactive; Activity (Rattus norvegicus [23]): Active; Activity (Rattus norvegicus [24]): Non-toxic; Activity (Rattus norvegicus [25]): Non-toxic; Activity (Rattus norvegicus [26]): Non-toxic; Activity (Rattus norvegicus [27]): Non-toxic; Activity (Rattus norvegicus [28]): Non-toxic; Activity (Mus musculus [32]): Active; Activity (Mus musculus [33]): inactive; Activity (Mus musculus [34]): Non-toxic; Activity (Mus musculus [35]): Non-toxic; Activity (Mus musculus [36]): Toxic; Activity (Mus musculus [37]): Toxic; ED50 (Mus musculus [38]): 27.2 mg/kg; Time (Mus musculus [39]): 0.25 h
CCOC(=O)CN1C(=O)[C@H](c2ccccc2)N2CCCC[C@H]2C1=O	inactive	inactive	inactive	inactive	inactive	inactive	inactive	inactive	inactive	inactive	inactive	inactive	Non-toxic	Non-toxic	Non-toxic	Non-toxic	Non-toxic	Active	Active	Active	Activity (Mus musculus [40]): Non-toxic; Activity (Mus musculus [32]): inactive; Activity (Mus musculus [33]): inactive; Activity (Mus musculus [41]): Non-toxic; Activity (Mus musculus [34]): Non-toxic; Activity (Mus musculus [35]): Non-toxic; ED50 (Mus musculus [38]): 55.3 mg/kg; Time (Mus musculus [39]): 0.25 h
Cl.O=C1[C@H](c2ccccc2)N2CCCC[C@H]2C(=O)N1Cc1ccccc1	inactive	inactive	inactive	inactive	inactive	Active	inactive	inactive	inactive	inactive	inactive	inactive	Non-toxic	Non-toxic	Non-toxic	Non-toxic	Non-toxic				Activity (Mus musculus [40]): Non-toxic; Activity (Mus musculus [42]): Active; Activity (Mus musculus [43]): Active
